These results are taken from patent US7754739B2, “Modulators of CFTR” (Vertex Pharmaceuticals Incorporated, priority 2007, dated 2010).

Each structure is given as a SMILES string.

The target of the assay is T1, ΔF508-CFTR (Homo sapiens, UniProt P13569, DEL508-508).
T1 construct: expressed in transfected cells; host or cells: NIH3T3 mouse fibroblasts, stably expressing
The assay can be described thus: Membrane potential optical methods for assaying ΔF508-CFTR modulation properties of compounds. Type of assay: cell-based. To be noted: NIH3T3 cells expressing ΔF508-CFTR. From the text:
Assays for Detecting and Measuring ΔF508-CFTR Correction Properties of Compounds
Membrane potential optical methods for assaying ΔF508-CFTR modulation properties of compounds
The optical membrane potential assay utilized voltage-sensitive FRET sensors described by Gonzalez and Tsien (See, Gonzalez, J. E. and R. Y. Tsien (1995) “Voltage sensing by fluorescence resonance energy transfer in single cells” Biophys J 69(4): 1272-80, and Gonzalez, J. E. and R. Y. Tsien (1997) “Improved indicators of cell membrane potential that use fluorescence resonance energy transfer” Chem Biol 4(4): 269-77) in combination with instrumentation for measuring fluorescence changes such as the Voltage/Ion Probe Reader (VIPR) (See, Gonzalez, J. E., K. Oades, et al. (1999) “Cell-based assays and instrumentation for screening ion-channel targets” Drug Discov Today 4(9): 431-439).
These voltage sensitive assays are based on the change in fluorescence resonant energy transfer (FRET) between the membrane-soluble, voltage-sensitive dye, DiSBAC2(3), and a fluorescent phospholipid, CC2-DMPE, which is attached to the outer leaflet of the plasma membrane and acts as a FRET donor. Changes in membrane potential (Vm) cause the negatively charged DiSBAC2(3) to redistribute across the plasma membrane and the amount of energy transfer from CC2-DMPE changes accordingly. The changes in fluorescence emission were monitored using VIPR™ II, which is an integrated liquid handler and fluorescent detector designed to conduct cell-based screens in 96- or 384-well microtiter plates.
1. Identification of Correction Compounds
To identify small molecules that correct the trafficking defect associated with EF508-CFTR; a single-addition HTS assay format was developed. The cells were incubated in serum-free medium for 16 hrs at 37° C. in the presence or absence (negative control) of test compound. As a positive control, cells plated in 384-well plates were incubated for 16 hrs at 27° C. to “temperature-correct” ΔF508-CFTR. The cells were subsequently rinsed 3× with Krebs Ringers solution and loaded with the voltage-sensitive dyes. To activate ΔF508-CFTR, 10 μM forskolin and the CFTR potentiator, genistein (20 μM), were added along with Cl^−-free medium to each well. The addition of Cl^−-free medium promoted Cl^−-efflux in response to ΔF508-CFTR activation and the resulting membrane depolarization was optically monitored using the FRET-based voltage-sensor dyes.
2. […]
To identify potentiators of ΔF508-CFTR, a double-addition HTS assay format was developed. […] The extracellular Cl^−-concentration following both additions was 28 mM, which promoted Cl^−-efflux in response to ΔF508-CFTR activation and the resulting membrane depolarization was optically monitored using the FRET-based voltage-sensor dyes. […]

T1 sequence (P13569 with tags, fused parts or gaps DEL508-508): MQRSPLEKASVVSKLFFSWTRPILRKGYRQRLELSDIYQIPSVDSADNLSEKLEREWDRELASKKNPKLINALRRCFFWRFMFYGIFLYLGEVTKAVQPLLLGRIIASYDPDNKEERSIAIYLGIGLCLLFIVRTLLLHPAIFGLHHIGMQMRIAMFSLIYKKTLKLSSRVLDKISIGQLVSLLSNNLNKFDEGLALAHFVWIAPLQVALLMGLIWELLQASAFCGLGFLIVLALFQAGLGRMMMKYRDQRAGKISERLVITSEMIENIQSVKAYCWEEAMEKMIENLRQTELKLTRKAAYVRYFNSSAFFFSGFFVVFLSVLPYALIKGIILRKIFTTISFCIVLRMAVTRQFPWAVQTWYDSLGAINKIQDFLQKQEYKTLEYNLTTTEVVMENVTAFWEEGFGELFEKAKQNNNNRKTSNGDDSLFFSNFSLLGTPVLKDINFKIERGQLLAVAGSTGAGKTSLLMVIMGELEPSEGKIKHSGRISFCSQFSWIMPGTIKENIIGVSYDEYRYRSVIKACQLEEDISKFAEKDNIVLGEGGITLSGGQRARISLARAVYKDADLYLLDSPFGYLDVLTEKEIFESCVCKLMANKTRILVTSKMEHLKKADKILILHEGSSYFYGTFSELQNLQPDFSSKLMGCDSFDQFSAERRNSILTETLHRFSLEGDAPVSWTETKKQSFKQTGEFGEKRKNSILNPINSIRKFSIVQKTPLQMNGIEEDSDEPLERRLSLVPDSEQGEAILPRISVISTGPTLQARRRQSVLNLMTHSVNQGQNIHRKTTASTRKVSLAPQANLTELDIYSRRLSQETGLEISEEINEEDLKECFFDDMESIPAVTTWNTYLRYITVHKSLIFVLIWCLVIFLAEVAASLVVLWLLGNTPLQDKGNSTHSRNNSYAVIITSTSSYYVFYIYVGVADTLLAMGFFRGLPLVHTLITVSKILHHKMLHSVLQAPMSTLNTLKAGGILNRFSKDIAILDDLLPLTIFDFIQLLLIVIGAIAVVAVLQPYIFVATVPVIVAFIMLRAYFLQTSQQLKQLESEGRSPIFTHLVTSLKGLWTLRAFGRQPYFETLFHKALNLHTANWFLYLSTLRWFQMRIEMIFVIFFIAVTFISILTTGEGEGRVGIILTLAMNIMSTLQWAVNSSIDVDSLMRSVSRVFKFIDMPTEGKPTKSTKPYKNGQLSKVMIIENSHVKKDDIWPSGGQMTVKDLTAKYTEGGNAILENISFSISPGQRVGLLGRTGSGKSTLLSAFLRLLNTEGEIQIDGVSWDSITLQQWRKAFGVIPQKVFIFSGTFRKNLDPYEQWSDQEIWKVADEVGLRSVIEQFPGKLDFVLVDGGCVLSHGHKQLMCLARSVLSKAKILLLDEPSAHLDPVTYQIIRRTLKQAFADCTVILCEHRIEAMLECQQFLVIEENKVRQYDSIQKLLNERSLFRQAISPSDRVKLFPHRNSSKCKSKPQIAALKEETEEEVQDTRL

Consider `COc1ccc(C2(C(=O)Nc3ccc(C)c(-c4cccc(C(=O)O)c4)n3)CC2)cc1` [compound 1], for which the half-maximal effective concentration (EC50) is no more than 2000 nM and the “Percent Efficacy” value is recorded as “+++ (100.0% < +++)”.

For `Cc1ccc(NC(=O)C2(c3ccc4c(c3)CCO4)CC2)nc1-c1cccc(C(=O)O)c1` [compound 2], the EC50 was no more than 2000 nM and the “Percent Efficacy” value is on record as “+++ (100.0% < +++)”.
